Molecular target: T1, Q46 protein aggregates (Homo sapiens, UniProt P42858)
T1 construct: fused on or other part: GST at the N-terminus, cut off with thrombin before the test to start aggregation; The wells held aggregated Q46 without GST
Experiment: Q46 radioligand binding assay (RBA)
Conditions: 10 nM ligand [3H3]MK-3328
How it was run: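 Aggregates from thrombin-cleaved GST-Q46 (16 h, 37° C) at 5 μM monomer-equivalent were pre-incubated 20 min at room temperature with compound (1 μM to 30 pM) in 150 mM NaCl, 50 mM Tris pH 8.0, then 60 min at 37° C with 10 nM [^3H3]MK-3328. Bound radioactivity was filtered and counted; IC50 came from a four-parameter global fit normalized to vehicle and 3 μM unlabelled MK-3328.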

T1 sequence (P42858 with tags, fused parts or gaps with the stated changes, form open): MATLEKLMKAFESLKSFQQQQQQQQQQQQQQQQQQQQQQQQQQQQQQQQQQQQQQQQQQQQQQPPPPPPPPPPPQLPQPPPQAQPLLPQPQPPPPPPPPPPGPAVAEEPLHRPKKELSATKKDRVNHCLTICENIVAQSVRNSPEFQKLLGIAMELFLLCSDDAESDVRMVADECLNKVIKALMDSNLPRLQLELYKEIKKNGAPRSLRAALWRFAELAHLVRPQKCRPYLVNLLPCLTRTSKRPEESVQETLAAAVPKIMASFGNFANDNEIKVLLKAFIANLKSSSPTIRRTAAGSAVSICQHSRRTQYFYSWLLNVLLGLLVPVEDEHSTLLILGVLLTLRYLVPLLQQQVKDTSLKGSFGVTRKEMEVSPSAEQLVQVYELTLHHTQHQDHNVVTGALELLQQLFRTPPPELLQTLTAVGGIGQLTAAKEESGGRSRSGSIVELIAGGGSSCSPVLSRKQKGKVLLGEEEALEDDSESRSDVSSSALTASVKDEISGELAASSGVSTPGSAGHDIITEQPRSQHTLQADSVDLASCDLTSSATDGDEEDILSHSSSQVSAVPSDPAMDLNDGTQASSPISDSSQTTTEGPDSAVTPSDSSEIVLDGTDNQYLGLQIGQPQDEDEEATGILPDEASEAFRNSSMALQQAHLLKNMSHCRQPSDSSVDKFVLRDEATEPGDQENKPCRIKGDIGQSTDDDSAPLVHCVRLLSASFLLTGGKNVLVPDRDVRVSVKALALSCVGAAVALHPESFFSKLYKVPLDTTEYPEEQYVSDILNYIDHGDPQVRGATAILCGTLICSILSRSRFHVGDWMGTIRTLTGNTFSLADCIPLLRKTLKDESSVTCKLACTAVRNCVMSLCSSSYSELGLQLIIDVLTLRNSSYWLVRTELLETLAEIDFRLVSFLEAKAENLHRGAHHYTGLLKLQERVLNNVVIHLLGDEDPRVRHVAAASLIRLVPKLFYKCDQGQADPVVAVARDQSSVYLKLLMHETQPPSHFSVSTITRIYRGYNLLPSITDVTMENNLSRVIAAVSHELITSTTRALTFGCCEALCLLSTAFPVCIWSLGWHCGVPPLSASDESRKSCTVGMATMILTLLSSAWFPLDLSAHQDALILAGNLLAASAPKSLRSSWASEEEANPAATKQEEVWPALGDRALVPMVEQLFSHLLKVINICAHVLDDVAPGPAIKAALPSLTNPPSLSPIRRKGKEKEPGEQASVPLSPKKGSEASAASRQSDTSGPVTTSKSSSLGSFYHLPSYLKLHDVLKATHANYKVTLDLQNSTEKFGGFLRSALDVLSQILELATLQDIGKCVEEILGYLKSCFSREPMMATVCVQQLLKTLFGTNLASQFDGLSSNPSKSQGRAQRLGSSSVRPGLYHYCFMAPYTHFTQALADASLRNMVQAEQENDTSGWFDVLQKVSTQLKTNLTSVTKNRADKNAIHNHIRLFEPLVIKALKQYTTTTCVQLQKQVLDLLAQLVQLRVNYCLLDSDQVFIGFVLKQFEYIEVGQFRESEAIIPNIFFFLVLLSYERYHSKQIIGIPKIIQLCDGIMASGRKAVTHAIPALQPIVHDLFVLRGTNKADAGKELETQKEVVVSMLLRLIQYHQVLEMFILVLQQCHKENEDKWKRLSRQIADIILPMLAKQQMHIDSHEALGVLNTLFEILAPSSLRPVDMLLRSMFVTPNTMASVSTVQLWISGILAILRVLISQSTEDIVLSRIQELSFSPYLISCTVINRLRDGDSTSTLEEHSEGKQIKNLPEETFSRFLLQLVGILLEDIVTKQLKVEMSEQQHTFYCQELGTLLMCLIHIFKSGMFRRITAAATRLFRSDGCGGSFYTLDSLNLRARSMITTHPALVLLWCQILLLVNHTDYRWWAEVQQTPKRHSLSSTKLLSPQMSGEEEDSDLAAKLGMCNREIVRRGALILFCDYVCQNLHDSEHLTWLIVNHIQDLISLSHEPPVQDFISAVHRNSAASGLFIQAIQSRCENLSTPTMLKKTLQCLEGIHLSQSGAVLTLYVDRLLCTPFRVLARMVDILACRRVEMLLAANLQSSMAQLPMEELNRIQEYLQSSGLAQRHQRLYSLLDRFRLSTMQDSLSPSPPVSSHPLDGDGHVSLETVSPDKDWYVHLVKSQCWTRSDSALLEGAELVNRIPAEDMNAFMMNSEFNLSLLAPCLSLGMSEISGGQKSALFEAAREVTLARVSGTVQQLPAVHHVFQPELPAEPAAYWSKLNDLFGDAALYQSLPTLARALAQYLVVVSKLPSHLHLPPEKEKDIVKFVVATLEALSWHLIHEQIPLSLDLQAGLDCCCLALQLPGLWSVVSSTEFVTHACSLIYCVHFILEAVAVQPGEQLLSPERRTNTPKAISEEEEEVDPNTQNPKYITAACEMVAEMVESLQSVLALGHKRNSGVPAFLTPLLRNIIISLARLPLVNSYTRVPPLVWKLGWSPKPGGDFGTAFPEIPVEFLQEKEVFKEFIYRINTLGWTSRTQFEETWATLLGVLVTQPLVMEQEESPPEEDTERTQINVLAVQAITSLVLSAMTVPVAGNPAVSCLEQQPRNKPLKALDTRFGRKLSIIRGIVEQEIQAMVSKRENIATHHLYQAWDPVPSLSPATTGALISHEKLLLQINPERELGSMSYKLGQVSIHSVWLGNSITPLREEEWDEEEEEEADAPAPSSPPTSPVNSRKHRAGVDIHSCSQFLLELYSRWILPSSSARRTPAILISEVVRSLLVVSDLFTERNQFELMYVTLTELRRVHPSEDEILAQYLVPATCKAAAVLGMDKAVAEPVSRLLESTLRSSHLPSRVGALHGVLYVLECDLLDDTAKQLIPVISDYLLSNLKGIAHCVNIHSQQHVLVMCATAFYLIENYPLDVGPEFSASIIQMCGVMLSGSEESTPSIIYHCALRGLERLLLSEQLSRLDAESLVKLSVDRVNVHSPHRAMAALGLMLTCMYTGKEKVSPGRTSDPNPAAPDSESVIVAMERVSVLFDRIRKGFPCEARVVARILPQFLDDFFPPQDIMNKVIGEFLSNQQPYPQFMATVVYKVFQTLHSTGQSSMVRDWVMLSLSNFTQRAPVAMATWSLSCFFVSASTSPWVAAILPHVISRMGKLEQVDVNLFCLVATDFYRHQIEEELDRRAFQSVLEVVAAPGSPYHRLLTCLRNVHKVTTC

Row | IC50 | SMILES
1 | < 100 nM | N#Cc1cnccc1-c1cc2cc(Oc3cccnc3)ccc2o1 [4-[5-(pyridin-3-yloxy)-1-benzofuran-2-yl]pyridine-3-carbonitrile]
2 | < 100 nM | COc1ccc(C(=O)Nc2ccc3oc(-c4cccnc4)nc3c2)nc1 [5-methoxy-N-[2-(pyridin-3-yl)-1,3-benzoxazol-5-yl]pyridine-2-carboxamide]
3 | < 100 nM | COc1ccc(-c2nc3cc(NC(=O)c4cccc(OC)c4)ccc3o2)cc1 [3-methoxy-N-[2-(4-methoxyphenyl)-1,3-benzoxazol-5-yl]benzamide]
4 | < 100 nM | COc1cnc(COc2ccc3oc(-c4cccnc4)nc3c2)cn1 [5-[(5-methoxypyrazin-2-yl)methoxy]-2-(pyridin-3-yl)-1,3-benzoxazole]
5 | < 100 nM | COCCOc1cnc(-c2ccc3oc(-c4cccnc4)nc3c2)nc1 [5-[5-(2-methoxyethoxy)pyrimidin-2-yl]-2-(pyridin-3-yl)-1,3-benzoxazole]
6 | < 100 nM | c1cncc(-c2nc3cc(Nc4ccncn4)ccc3o2)c1 [2-(pyridin-3-yl)-N-(pyrimidin-4-yl)-1,3-benzoxazol-5-amine]
7 | < 100 nM | COc1ccc(-c2ccc3oc(-c4cccnc4)nc3c2)cc1 [5-(4-methoxyphenyl)-2-(pyridin-3-yl)-1,3-benzoxazole]
8 | < 100 nM | COc1cncc(C(=O)Nc2ccc3oc(-c4ccc(=O)n(C)n4)nc3c2)c1 [5-methoxy-N-[2-(1-methyl-6-oxo-1,6-dihydropyridazin-3-yl)-1,3-benzoxazol-5-yl]pyridine-3-carboxamide]
9 | < 100 nM | COc1ccc(COc2ccc3oc(-c4cc5ccccc5o4)nc3c2)nc1 [2-(1-benzofuran-2-yl)-5-[(5-methoxypyridin-2-yl)methoxy]-1,3-benzoxazole]
10 | < 100 nM | COc1ccc(-c2nc3cc(NC(=O)c4ccccc4OC)ccc3o2)cc1 [2-methoxy-N-[2-(4-methoxyphenyl)-1,3-benzoxazol-5-yl]benzamide]
11 | < 100 nM | COc1ccnc(COc2cnc3oc(-c4cccnc4)nc3c2)c1 [4-methoxy-2-({[2-(pyridin-3-yl)-[1,3]oxazolo[5,4-b]pyridin-6-yl]oxy}methyl)pyridine]
12 | < 100 nM | C1=C(c2cc3cc(OCc4cccnc4)ccc3o2)N2CCN=C2S1 [3-{[(2-{5H,6H-imidazo[2,1-b][1,3]thiazol-3-yl}-1-benzofuran-5-yl)oxy]methyl}pyridine]
13 | < 100 nM | N#Cc1cnccc1-c1cc2cc(OCC3=CSC4=NCCN34)ccc2o1 [4-(5-{5H,6H-imidazo[2,1-b][1,3]thiazol-3-ylmethoxy}-1-benzofuran-2-yl)pyridine-3-carbonitrile]
14 | 100 to 500 nM | Cn1cc(-c2nc3cc(OCc4ccc(N)cn4)cnc3o2)cn1 [6-({[2-(1-methyl-1H-pyrazol 4-yl)-[1,3]oxazolo[5,4-b]pyridin-6-yl]oxy}methyl)pyridin-3-amine]
15 | < 100 nM | O=C(Nc1ccc2oc(-c3cccnc3)nc2c1)c1ccc(COc2ccccc2)cc1 [4-(phenoxymethyl)-N-[2-(pyridin-3-yl)-1,3-benzoxazol-5-yl]benzamide]
16 | 100 to 500 nM | COc1ccc(COc2cnc3oc(-c4ccc[n+]([O-])c4)nc3c2)[n+]([O-])c1 [3-{6-[(5-methoxy-1-oxidopyridin-1-ium-2-yl)methoxy]-[1,3]oxazolo[5,4-b]pyridin-2-yl}pyridin-1-ium-1-olate]
17 | < 100 nM | CNCc1cccc(-c2nc3cc(OCc4ccc(OC)cn4)ccc3o2)c1 [[(3-{5-[(5-methoxypyridin-2-yl)methoxy]-1,3-benzoxazol-2-yl}phenyl)methyl](methyl)amine]
18 | < 100 nM | COc1cnc(COc2ccc3oc(-c4cnn(C)c4)nc3c2)cn1 [5-[(5-methoxypyrazin-2-yl)methoxy]-2-(1-methyl-1H-pyrazol-4-yl)-1,3-benzoxazole]
19 | < 100 nM | COc1cncc(COc2cnc3oc(-c4cccnc4)nc3c2)c1 [3-methoxy-5-({[2-(pyridin-3-yl)-[1,3]oxazolo[5,4-b]pyridin-6-yl]oxy}methyl)pyridine]
